We go through 74 molecules from paper PMC12040169 (PLOS Biology, 2025).

This data set is described as follows: in vitro. Particulars: human, hela cells, % viability.
`CCCn1c(O)cc(=O)nc1SCC(=O)NCc1ccc(OC)c(OC)c1` [CBK295592]: the viability at 28.5 h, 10 µM came to 101%.
As for `O=c1oc(-c2ccco2)nn1Cc1ccc([N+](=O)[O-])cc1` [CBK295593], the viability at 28.5 h, 10 µM amounted to 94.8%.
Consider `CC(Sc1nc(-c2ccccc2F)n[nH]1)C(=O)N1CCNC1=O` (centres unmarked) [CBK295594], for which the viability at 28.5 h, 10 µM is 106%.
Turning to `CCCn1c(SC(C)C(=O)c2cc(C)n(-c3ccc(Cl)cc3)c2C)n[nH]c1=O` (centres unmarked) [CBK295595], the viability at 28.5 h, 10 µM was 86.2%.
Turning to `CC(=O)Nc1cccc(NC(=O)c2ccc(CN3CCCCC3)cc2)c1` [CBK295596], the viability at 28.5 h, 10 µM stood at 103%.
In the case of `Cc1cc(C)c(NC(=O)CSc2n[nH]c(=O)n2C2CC2)c(C)c1` [CBK295598], the viability at 28.5 h, 10 µM stood at 95%.
Regarding `Cc1nc(C)c(CCC(=O)NC2CCCc3ccccc32)c(=O)[nH]1` (centres unmarked) [CBK295600], the viability at 28.5 h, 10 µM was 98.7%.
Consider `Cc1nc(C)c(CCC(=O)NC2CCSc3c(F)cccc32)c(=O)[nH]1` (centres unmarked) [CBK295601], for which the viability at 28.5 h, 10 µM came out at 95.2%.
Turning to `O=C(CCn1c(=O)oc2ccccc21)N1CC=C(c2ccc(F)cc2)CC1` [CBK295602], the viability at 28.5 h, 10 µM stood at 95.8%.
Under `Cc1ccc(SCCNC(=O)CSc2n[nH]c(=O)n2C2CC2)cc1` [CBK295605] stands 120%; under `Cc1noc2nc(-c3ccco3)cc(C(=O)NCc3nc4ccccc4[nH]3)c12` [CBK295608], 93.5%; under `O=C(CSc1ncnc2ccccc12)N(Cc1ccccc1F)C1CC1` [CBK295610], 92.1%.
For `CC(C)[C@H](NS(=O)(=O)c1ccc(Cl)cc1)C(=O)NCc1ccc(Cn2cccn2)cc1` [CBK295611] the value was 104%; for `Cc1ccc(Oc2ccc(NC(=O)Cn3cnnc3C#N)cc2)cc1` [CBK295612], 106%; for `Cc1csc(NC(=O)c2cc(S(=O)(=O)N3CCCC3)cn2C)n1` [CBK295617], 87.8%.
In the case of `Cc1c(O)ccc2c(COC(=O)C3(c4ccccc4)CCCC3)cc(=O)oc12` [CBK295622], the viability at 28.5 h, 10 µM turned out to be 98.8%.
`Cc1noc2nc(-c3ccco3)cc(C(=O)N(C)CCOc3ccccc3)c12` [CBK295623]: the viability at 28.5 h, 10 µM was 90.1%.
For the molecule `CN(Cc1cn(-c2ccccc2)nc1-c1ccccc1)C(=O)CCc1n[nH]c(=S)[nH]c1=O` [CBK295630], the viability at 28.5 h, 10 µM stood at 102%.
In the case of `O=C(OCCCc1cccnc1)c1cc(=O)[nH]c2ccccc12` [CBK295631], the viability at 28.5 h, 10 µM amounted to 99.7%.
With `O=C(NC(c1ccc(F)cc1)c1cccs1)c1ccccn1` (centres unmarked) [CBK295636], the viability at 28.5 h, 10 µM came out at 106%.
For the molecule `Cc1cc(NC(=O)C(C)N2CCN(S(=O)(=O)c3ccc(C4CCCCC4)cc3)CC2)on1` (centres unmarked) [CBK295639], the viability at 28.5 h, 10 µM was determined as 101%.
With `O=C(COc1ccc(-c2ccccc2)cc1Cl)N1CCN(C(=O)C2CC2)CC1` [CBK295640], the viability at 28.5 h, 10 µM was found to be 96.8%.
Turning to `Cc1cc(C(=O)CSc2nc(=O)cc(O)n2CC(C)C)c(C)n1C` [CBK295649], the viability at 28.5 h, 10 µM was found to be 85.4%.
Consider `COCCCn1c(SCc2csc(-c3ccc(C)cc3)n2)n[nH]c1=O` [CBK295657], for which the viability at 28.5 h, 10 µM was 93.3%.
For `Cc1ccc(OCC(=O)NC(C)c2ccc(F)cc2F)c([N+](=O)[O-])n1` (centres unmarked) [CBK295662] the value was 92.7%; for `Cc1ccc(CN(C)C(C)C(=O)NCc2cccs2)cc1` (centres unmarked) [CBK295663], 103%; for `COc1ccc(CN(C(=O)CCc2c(C)[nH]c(=O)c(C#N)c2C)C2CC2)cc1` [CBK295667], 97.6%.
For `Cc1ccc(-c2csc(=Nc3ccc(C(=O)O)cc3)n2Cc2ccccc2)cc1` [CBK296062] the value was 105%; for `Cc1cc(=O)[nH]c(SCc2nc3ccccn3c2Br)n1` [CBK296063], 121%; for `CCOc1ccc(Nc2nc(-c3ccc(F)cc3)c(CC(=O)O)s2)cc1` [CBK296064], 99.3%.
In the case of `O=C(O)CCC(=O)N1N=C2C(=Cc3ccc(F)cc3)CCCC2C1c1ccc(F)cc1` (centres unmarked) [CBK296066], the viability at 28.5 h, 10 µM turned out to be 93%.
For the molecule `CSCCC(NC(=O)c1ccccc1NC(=O)c1ccc(C)cc1)C(=O)O` (centres unmarked) [CBK296067], the viability at 28.5 h, 10 µM came out at 94.1%.
For the molecule `O=C(O)CCC(=O)N1N=C2C(=Cc3ccco3)CCCC2C1c1ccco1` (centres unmarked) [CBK296069], the viability at 28.5 h, 10 µM turned out to be 97.9%.
For `O=C(O)CCC(=O)N1N=C2C(=Cc3cccc([N+](=O)[O-])c3)CCCC2C1c1cccc([N+](=O)[O-])c1` (centres unmarked) [CBK296071], the viability at 28.5 h, 10 µM was found to be 122%.
Under `COc1ccc(C2c3cc(OC)c(OC)cc3CC(=O)N2c2ccc(C(=O)O)cc2)cc1` (centres unmarked) [CBK296074] stands 93.6%.
Under `CC(=O)Nc1ccc(S(=O)(=O)Nc2nc3ccccc3nc2Nc2ccc(C(=O)O)cc2)cc1` [CBK296079] stands 125%; under `Cc1c(OCc2ccc(C(=O)O)cc2)ccc2c(-c3ccccc3)cc(=O)oc12` [CBK296080], 117%.
With `COc1ccc(C2c3cc(OC)c(OC)cc3CC(=O)N2c2ccc(C(=O)O)cc2)cc1OC` (centres unmarked) [CBK296082], the viability at 28.5 h, 10 µM came to 96.4%.
In the case of `CCOc1ccc(-n2c(C)cc(C(=O)NS(=O)(=O)c3ccc(C)cc3)c2C)cc1` [CBK296084], the viability at 28.5 h, 10 µM was found to be 90.1%.
With `Cc1ccc(S(=O)(=O)NC(=O)c2cc(C)n(-c3ccc(N(C)C)cc3)c2C)cc1` [CBK296085], the viability at 28.5 h, 10 µM came out at 92.9%.
For `O=C(NCCCCNC(=O)c1scc(-c2ccccc2)c1C(=O)O)c1scc(-c2ccccc2)c1C(=O)O` [CBK296086], the viability at 28.5 h, 10 µM is 107%.
On to `O=C(O)COc1ccc2c(=O)c(Oc3ccc(Cl)cc3)c(C(F)(F)F)oc2c1` [CBK296087], for which the viability at 28.5 h, 10 µM was 119%.
On to `O=C(O)CCCNC(=O)COc1ccccc1OCC(=O)NCCCC(=O)O` [CBK296089], for which the viability at 28.5 h, 10 µM was 90%.
For `O=C(Nc1ccc(SC(F)F)cc1)c1cc(-c2ccncc2)nc2ccccc12` [CBK296092] the value was 85.8%; for `Cc1sc(NC(=O)CC(C)(C)CC(=O)Nc2sc(C)c(C)c2C(=O)O)c(C(=O)O)c1C` [CBK296094], 98.7%; for `COc1ccc(-c2onc(C)c2-c2cnn(-c3ccccc3)c2)c(O)c1` [CBK296095], 116%.
In the case of `CCOC(=O)c1c(-c2ccc(-c3ccccc3)cc2)csc1NC(=O)c1ccccc1C(=O)O` [CBK296096], the viability at 28.5 h, 10 µM is 106%.
Turning to `CCOc1ccc2cc(C3CC(c4ccccc4)=NN3C(=O)CCC(=O)O)c(Cl)nc2c1` (centres unmarked) [CBK296097], the viability at 28.5 h, 10 µM worked out at 114%.
As for `COc1ccc(C=CC(=O)ONC(=O)c2ccc(OC(F)F)cc2)cc1OC` [CBK296098], the viability at 28.5 h, 10 µM worked out at 92.8%.
In the case of `O=c1[nH]c2ccc(NC(=S)NCc3ccccc3)cc2[nH]1` [CBK296099], the viability at 28.5 h, 10 µM came out at 93.8%.
Under `CC(C)(CC(=O)Nc1sc2c(c1C(=O)O)CCC2)CC(=O)Nc1sc2c(c1C(=O)O)CCC2` [CBK296100] stands 92.3%.
Under `COc1cc(OC)c(NS(=O)(=O)c2cc(C(=O)O)ccc2C)cc1Cl` [CBK296105] stands 101%; under `O=C(O)CCC(=O)N1N=C(c2c(-c3ccccc3)c3cc(Cl)ccc3[nH]c2=O)CC1c1ccccn1` (centres unmarked) [CBK296106], 97.3%.
For `COc1ccc(C(=O)CC(SCC(NC(C)=O)C(=O)O)c2ccc(Cl)cc2)cc1OC` (centres unmarked) [CBK296109], the viability at 28.5 h, 10 µM amounted to 88.4%.
As for `O=C(O)c1cccc(Nc2nc3ccccc3nc2NS(=O)(=O)c2ccc(Br)cc2)c1` [CBK296113], the viability at 28.5 h, 10 µM turned out to be 111%.
Take `COC(=O)CCc1sc(NC(=O)CSCC(=O)O)nc1-c1ccc(OC)cc1` [CBK296116]: the viability at 28.5 h, 10 µM amounted to 93.6%.
Take `COc1ccc(C2c3cc(OC)c(OC)cc3CC(=O)N2c2cccc(C(=O)O)c2)cc1OC` (centres unmarked) [CBK296118]: the viability at 28.5 h, 10 µM is 94.1%.
In the case of `CCOc1ccc(S(=O)(=O)N(C)c2ccc(OCC(=O)O)cc2)cc1` [CBK296119], the viability at 28.5 h, 10 µM was found to be 102%.
Regarding `O=C(O)c1ccc(NC(=O)c2cn(-c3ccccc3)nc2-c2ccccc2)cc1` [CBK296120], the viability at 28.5 h, 10 µM came to 94.4%.
For `Cc1c(NS(=O)(=O)c2cc(C(=O)O)c(Cl)cc2Cl)c(=O)n(-c2ccccc2)n1C` [CBK296123], the viability at 28.5 h, 10 µM was 90.3%.
Consider `O=C(O)CCCC(=O)N1N=C(c2cccs2)CC1c1cn(-c2ccccc2)nc1-c1ccccc1` (centres unmarked) [CBK296124], for which the viability at 28.5 h, 10 µM was 90.3%.
Regarding `CC(=O)NS(=O)(=O)c1ccc(NC(=O)c2cn(-c3ccccc3)nc2-c2cccs2)cc1` [CBK296125], the viability at 28.5 h, 10 µM turned out to be 86.3%.
In the case of `Cc1ccc(-c2nn(-c3ccccc3)cc2C2CC(c3cccs3)=NN2C(=O)CCC(=O)O)cc1` (centres unmarked) [CBK296126], the viability at 28.5 h, 10 µM is 107%.
With `Cc1ccc2cc(C3CC(c4ccccc4)=NN3C(=O)CCC(=O)O)c(=O)[nH]c2c1` (centres unmarked) [CBK296127], the viability at 28.5 h, 10 µM came to 109%.
With `COc1ccc(C2CC(c3c(-c4ccccc4)c4cc(Cl)ccc4[nH]c3=O)=NN2C(=O)CCC(=O)O)cc1OC` (centres unmarked) [CBK296128], the viability at 28.5 h, 10 µM amounted to 103%.
Regarding `O=C(O)c1ccc(NS(=O)(=O)c2ccc3c(c2)OCCO3)cc1` [CBK296129], the viability at 28.5 h, 10 µM was found to be 108%.
Turning to `O=C(O)c1ccc(Cl)c(S(=O)(=O)Nc2ccc(I)cc2)c1` [CBK296132], the viability at 28.5 h, 10 µM was found to be 83.2%.
In the case of `CCOC(=O)c1cc(-c2ccc(OC)cc2)nn1-c1ccc(C(=O)O)cc1` [CBK296133], the viability at 28.5 h, 10 µM was found to be 87.9%.
For the molecule `COc1ccc(C2=NN(c3ccc(C(=O)O)cc3)C(c3ccc(OC)c(OC)c3)C2)cc1` (centres unmarked) [CBK296134], the viability at 28.5 h, 10 µM amounted to 111%.
Under `COc1ccc(C=CC(=O)N(C)c2ccccc2C(=O)O)cc1` [CBK296135] stands 106%.
`COc1cc(C=CC(=O)N(C)c2ccccc2C(=O)O)cc(OC)c1OC` [CBK296136]: the viability at 28.5 h, 10 µM amounted to 93.1%.
Regarding `O=C(CSc1nc2ccccc2c(=O)n1-c1ccc(F)cc1)Nc1ccc(C(=O)O)cc1` [CBK296140], the viability at 28.5 h, 10 µM was 96%.
In the case of `O=C(NCc1ccc(N2CCCC2=O)cc1)c1cc(Br)ccc1O` [CBK296614], the viability at 28.5 h, 10 µM was 91.2%.
On to `CNC(=O)c1ccc(NC(=O)CC(C)(C)CC(=O)O)cc1` [CBK296615], for which the viability at 28.5 h, 10 µM was found to be 95.8%.

For orientation: viability means a read-out of living cells in per cent, often relative to untreated cells.
